Patent US10487092B2, “Pyrazolopyridinamines as MKNK1 and MKNK2 inhibitors” (BAYER PHARMA AKTIENGESELLSCHAFT, priority 2014, dated 2019)

Target: human full-length MKNK1 (Homo sapiens (Human), UniProt Q9BUB5, T344D)
Experiment: MKNK1 kinase high ATP assay (TR-FRET)
Format: biochemical
Details: high ATP (2 mM), 15 min preincubation with enzyme; read-out: MKNK1 IC50
Protocol: MKNK1 Kinase High ATP Assay
MKNK1-inhibitory activity at high ATP of compounds of the present invention after their preincubation with MKNK1 was quantified employing the TR-FRET-based MKNK1 high ATP assay as described in the following paragraphs.
A recombinant fusion protein of Glutathione-S-Transferase (GST, N-terminally) and human full-length MKNK1 (amino acids 1-424 and T344D of accession number BAA 19885.1), expressed in insect cells using baculovirus expression system and purified via glutathione sepharose affinity chromatography, was purchased from Carna Biosciences (product no 02-145) and used as enzyme. As substrate for the kinase reaction the biotinylated peptide biotin-Ahx-IKKRKLTRRKSLKG (SEQ ID NO: 1, C-terminus in amide form) was used, which can be purchased e.g. from the company Biosyntan (Berlin-Buch, Germany).
For the assay 50 nL of a 100 fold concentrated solution of the test compound in DMSO was pipetted into a black low volume 384 well microtiter plate (Greiner Bio-One, Frickenhausen, Germany), 2 μL of a solution of MKNK1 in aqueous assay buffer [50 mM HEPES pH 7.5, 5 mM MgCl2, 1.0 mM dithiothreitol, 0.005% (v/v) Nonidet-P40 (Sigma)] was added and the mixture was incubated for 15 min at 22° C. to allow pre-binding of the test compounds to the enzyme before the start of the kinase reaction. Then the kinase reaction was started by the addition of 3 μL of a solution of adenosine-tri-phosphate (ATP, 3.3 mM=>final conc. in the 5 μL assay volume is 2 mM) and substrate (0.1 μM=>final conc. in the 5 μL assay volume is 0.06 μM) in assay buffer and the resulting mixture was incubated for a reaction time of 30 min at 22° C. The concentration of MKNK1 was adjusted depending of the activity of the enzyme lot and was chosen appropriate to have the assay in the linear range, typical concentrations were in the range of 0.003 μg/mL. The reaction was stopped by the addition of 5 μL of a solution of TR-FRET detection reagents (5 nM streptavidine-XL665 [Cisbio Bioassays, Codolet, France] and 1 nM anti-ribosomal protein S6 (pSer236)-antibody from Invitrogen [#44921G] and 1 nM LANCE EU-W1024 labeled ProteinG [Perkin-Elmer, product no. AD0071]) in an aqueous EDTA-solution (100 mM EDTA, 0.1% (w/v) bovine serum albumin in 50 mM HEPES pH 7.5).
The resulting mixture was incubated for 1 h at 22° C. to allow the formation of complex between the phosphorylated biotinylated peptide and the detection reagents. Subsequently the amount of phosphorylated substrate was evaluated by measurement of the resonance energy transfer from the Eu-chelate to the streptavidine-XL. Therefore, the fluorescence emissions at 620 nm and 665 nm after excitation at 350 nm were measured in a TR-FRET reader, e.g. a Rubystar (BMG Labtechnologies, Offenburg, Germany) or a Viewlux (Perkin-Elmer). The ratio of the emissions at 665 nm and at […] was taken as the measure for the amount of phosphorylated substrate. The data were normalised (enzyme reaction without inhibitor=0% inhibition, all other assay components but no enzyme=100% inhibition).

human full-length MKNK1, sequence (Q9BUB5 other isoform, or with tags, fused parts or gaps T344D): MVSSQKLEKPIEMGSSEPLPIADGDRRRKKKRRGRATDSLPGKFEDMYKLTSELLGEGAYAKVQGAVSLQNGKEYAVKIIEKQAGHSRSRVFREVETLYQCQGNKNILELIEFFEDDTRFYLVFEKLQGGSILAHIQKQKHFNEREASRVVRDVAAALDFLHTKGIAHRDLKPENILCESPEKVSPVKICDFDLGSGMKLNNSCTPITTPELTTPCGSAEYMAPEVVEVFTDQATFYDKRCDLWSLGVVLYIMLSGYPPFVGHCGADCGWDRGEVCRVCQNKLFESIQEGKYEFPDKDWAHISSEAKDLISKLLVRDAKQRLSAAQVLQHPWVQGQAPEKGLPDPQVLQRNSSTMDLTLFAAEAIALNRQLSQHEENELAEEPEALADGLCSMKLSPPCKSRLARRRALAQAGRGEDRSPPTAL

SMILES	IC50 [µM]
CC1(O)CN(C(=O)[C@H]2CCc3c(sc4ncnc(Nc5cc6ccnn6cc5Cl)c34)C2)C1 [Example 52, (7S)-4-[(6-Chloropyrazolo[1,5-a]pyridin-5-yl)amino]-5,6,7,8-tetrahydro[1]benzothieno[2,3-d]pyrimidin-7-yl(3-hydroxy-3-methylazetidin-1-yl)methanone]	0.008
CN(CCO)C(=O)[C@H]1CCc2c(sc3ncnc(Nc4cc5ccnn5cc4Cl)c23)C1 [Example 55, (7S)-4-[(6-Chloropyrazolo[1,5-a]pyridin-5-yl)amino]-N-(2-hydroxyethyl)-N-methyl-5,6,7,8-tetrahydro[1]benzothieno[2,3-d]pyrimidine-7-carboxamide]	0.018
COCCN(C)C(=O)[C@H]1CCc2c(sc3ncnc(Nc4cc5ccnn5cc4Cl)c23)C1 [Example 56, (7S)-4-[(6-Chloropyrazolo[1,5-a]pyridin-5-yl)amino]-N-(2-methoxyethyl)-N-methyl-5,6,7,8-tetrahydro[1]benzothieno[2,3-d]pyrimidine-7-carboxamide]	0.041
CC(C)N(C)C(=O)[C@H]1CCc2c(sc3ncnc(Nc4cc5ccnn5cc4Cl)c23)C1 [Example 57, (7S)-4-[(6-Chloropyrazolo[1,5-a]pyridin-5-yl)amino]-N-methyl-N-(propan-2-yl)-5,6,7,8-tetrahydro[1]benzothieno[2,3-d]pyrimidine-7-carboxamide]	0.012
CN(C)[C@@H]1CCN(C(=O)[C@H]2CCc3c(sc4ncnc(Nc5cc6ccnn6cc5Cl)c34)C2)C1 [Example 58, (7S)-4-[(6-Chloropyrazolo[1,5-a]pyridin-5-yl)amino]-5,6,7,8-tetrahydro[1]benzothieno[2,3-d]pyrimidin-7-yl[(3R)-3-(dimethylamino)pyrrolidin-1-yl]methanone]	0.002
CN(C)[C@H]1CCN(C(=O)[C@H]2CCc3c(sc4ncnc(Nc5cc6ccnn6cc5Cl)c34)C2)C1 [Example 59, (7S)-4-[(6-Chloropyrazolo[1,5-a]pyridin-5-yl)amino]-5,6,7,8-tetrahydro[1]benzothieno[2,3-d]pyrimidin-7-yl[(3S)-3-(dimethylamino)pyrrolidin-1-yl]methanone]	0.001
O=C([C@H]1CCc2c(sc3ncnc(Nc4cc5ccnn5cc4Cl)c23)C1)N1C[C@H](O)[C@@H](O)C1 [Example 60, (7S)-4-[(6-Chloropyrazolo[1,5-a]pyridin-5-yl)amino]-5,6,7,8-tetrahydro[1]benzothieno[2,3-d]pyrimidin-7-yl[(3S,4S)-3,4-dihydroxypyrrolidin-1-yl]methanone]	0.018
CN(C)C1CCN(C(=O)[C@H]2CCc3c(sc4ncnc(Nc5cc6ccnn6cc5Cl)c34)C2)CC1 [Example 61, (7S)-4-[(6-Chloropyrazolo[1,5-a]pyridin-5-yl)amino]-5,6,7,8-tetrahydro[1]benzothieno[2,3-d]pyrimidin-7-yl[4-(dimethylamino)piperidin-1-yl]methanone]	0.013
CN(C)CCCN(CCO)C(=O)[C@H]1CCc2c(sc3ncnc(Nc4cc5ccnn5cc4Cl)c23)C1 [Example 63, (7S)4-[(6-Chloropyrazolo[1,5-a]pyridin-5-yl)amino]-N-[3-(dimethylamino)propyl]-N-(2-hydroxyethyl)-5,6,7,8-tetrahydro[1]benzothieno[2,3-d]pyrimidine-7-carboxamide]	0.015
C[C@@H]1CN(C(=O)[C@H]2CCc3c(sc4ncnc(Nc5cc6ccnn6cc5Cl)c34)C2)C[C@H](C)O1 [Example 64, (7S)-4-[(6-Chloropyrazolo[1,5-a]pyridin-5-yl)amino]-5,6,7,8-tetrahydro[1]benzothieno[2,3-d]pyrimidin-7-yl[(2R,6S)-2,6-dimethylmorpholin-4-yl]methanone]	0.01
CN(C)CCN1CCN(C(=O)[C@H]2CCc3c(sc4ncnc(Nc5cc6ccnn6cc5Cl)c34)C2)CC1 [Example 66, (7S)-4-[(6-Chloropyrazolo[1,5-a]pyridin-5-yl)amino]-5,6,7,8-tetrahydro[1]benzothieno[2,3-d]pyrimidin-7-yl4-[2-(dimethylamino)ethyl]piperazin-1-ylmethanone]	0.006
CCN(CCN(C)C)C(=O)[C@H]1CCc2c(sc3ncnc(Nc4cc5ccnn5cc4Cl)c23)C1 [Example 67, (7S)-4-[(6-Chloropyrazolo[1,5-a]pyridin-5-yl)amino]-N-[2-(dimethylamino)ethyl]-N-ethyl-3,5,6,7,8-tetrahydro[1]benzothieno[2,3-d]pyrimidine-7-carboxamide]	0.03
O=C([C@H]1CCc2c(sc3ncnc(Nc4cc5ccnn5cc4Cl)c23)C1)N1CCOCC1 [Example 68, (7S)-4-[(6-Chloropyrazolo[1,5-a]pyridin-5-yl)amino]-5,6,7,8-tetrahydro[1]benzothieno[2,3-d]pyrimidin-7-yl(morpholin-4-yl)methanone]	0.004
CCN(CCO)C(=O)[C@H]1CCc2c(sc3ncnc(Nc4cc5ccnn5cc4Cl)c23)C1 [Example 69, (7S)-4-[(6-Chloropyrazolo[1,5-a]pyridin-5-yl)amino]-N-ethyl-N-(2-hydroxyethyl)-5,6,7,8-tetrahydro[1]benzothieno[2,3-d]pyrimidine-7-carboxamide]	0.006
CCN(CCOC)C(=O)[C@H]1CCc2c(sc3ncnc(Nc4cc5ccnn5cc4Cl)c23)C1 [Example 70, (7S)-4-[(6-Chloropyrazolo[1,5-a]pyridin-5-yl)amino]-N-ethyl-N-(2-methoxyethyl)-5,6,7,8-tetrahydro[1]benzothieno[2,3-d]pyrimidine-7-carboxamide]	0.007
COCCN(CCOC)C(=O)[C@H]1CCc2c(sc3ncnc(Nc4cc5ccnn5cc4Cl)c23)C1 [Example 71, (7S)-4-[(6-Chloropyrazolo[1,5-a]pyridin-5-yl)amino]-N,N-bis(2-methoxyethyl)-5,6,7,8-tetrahydro[1]benzothieno[2,3-d]pyrimidine-7-carboxamide]	0.012
CN1C[C@@H]2C[C@H]1CN2C(=O)[C@H]1CCc2c(sc3ncnc(Nc4cc5ccnn5cc4Cl)c23)C1 [Example 72, (7S)-4-[(6-Chloropyrazolo[1,5-a]pyridin-5-yl)amino]-5,6,7,8-tetrahydro[1]benzothieno[2,3-d]pyrimidin-7-yl[(1S,4S)-5-methyl-2,5-diazabicyclo[2.2.1]hept-2-yl]methanone]	0.014
CN1C[C@H]2C[C@@H]1CN2C(=O)[C@H]1CCc2c(sc3ncnc(Nc4cc5ccnn5cc4Cl)c23)C1 [Example 73, (7S)-4-[(6-Chloropyrazolo[1,5-a]pyridin-5-yl)amino]-5,6,7,8-tetrahydro[1]benzothieno[2,3-d]pyrimidin-7-yl[(1R,4R)-5-methyl-2,5-diazabicyclo[2.2.1]hept-2-yl]methanone]	0.004
O=C([C@H]1CCc2c(sc3ncnc(Nc4cc5ccnn5cc4Cl)c23)C1)N1C[C@@H]2C[C@H]1CO2 [Example 74, (7S)-4-[(6-Chloropyrazolo[1,5-a]pyridin-5-yl)amino]-5,6,7,8-tetrahydro[1]benzothieno[2,3-d]pyrimidin-7-yl[(1S,4S)-2-oxa-5-azabicyclo[2.2.1]hept-5-yl]methanone]	0.022
O=C([C@H]1CCc2c(sc3ncnc(Nc4cc5ccnn5cc4Cl)c23)C1)N1C[C@H]2C[C@@H]1CO2 [Example 75, (7S)-4-[(6-Chloropyrazolo[1,5-a]pyridin-5-yl)amino]-5,6,7,8-tetrahydro[1]benzothieno[2,3-d]pyrimidin-7-yl[(1R,4R)-2-oxa-5-azabicyclo[2.2.1]hept-5-yl]methanone]	0.056
C[C@H]1COCCN1C(=O)[C@H]1CCc2c(sc3ncnc(Nc4cc5ccnn5cc4Cl)c23)C1 [Example 76, (7S)-4-[(6-Chloropyrazolo[1,5-a]pyridin-5-yl)amino]-5,6,7,8-tetrahydro[1]benzothieno[2,3-d]pyrimidin-7-yl[(3S)-3-methylmorpholin-4-yl]methanone]	0.007
C[C@@H]1COCCN1C(=O)[C@H]1CCc2c(sc3ncnc(Nc4cc5ccnn5cc4Cl)c23)C1 [Example 77, (7S)-4-[(6-Chloropyrazolo[1,5-a]pyridin-5-yl)amino]-5,6,7,8-tetrahydro[1]benzothieno[2,3-d]pyrimidin-7-yl[(3R)-3-methylmorpholin-4-yl]methanone]	0.021
